Assay results from PMC5271583 (Bioorganic & medicinal chemistry letters, 2016).
Where two headings read alike, the source gives them in different places.

What was measured:
Format in all cases: cell-based, rodent
CRAC channel = CRAC channel (Rattus norvegicus, UniProt Q5M848); experiment: Inhibition of Ca2+ influx in thapsigargin-activated RBL-2H3 mast cells; conditions: for inhibition at 100 µM: RBL-2H3, read-out: Inhibition of Ca2+ influx at 100 µM (no IC50)
TNFα = TNFα protein secretion by thapsigargin-activated RBL cells, ELISA; conditions: 4 h, read-out: IC50 (µM) TNFα
RBL-2H3 cells = experiment: β-hexosaminidase release; conditions: highest concentration tested
NFAT-c1 = conditions: 10 µM and higher concentrations

Sequence of CRAC channel (Q5M848 whole entry): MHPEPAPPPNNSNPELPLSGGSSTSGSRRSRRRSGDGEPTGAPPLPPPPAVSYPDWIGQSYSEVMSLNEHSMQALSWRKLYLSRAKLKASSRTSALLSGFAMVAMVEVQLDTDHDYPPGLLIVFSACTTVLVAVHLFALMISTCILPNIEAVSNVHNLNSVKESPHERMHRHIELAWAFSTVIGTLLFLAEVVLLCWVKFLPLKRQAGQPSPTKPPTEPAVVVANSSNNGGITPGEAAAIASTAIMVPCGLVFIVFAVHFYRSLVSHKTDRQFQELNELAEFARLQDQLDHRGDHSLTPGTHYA

O=C(Nc1nn(Cc2ccc(Cl)cc2Cl)c2ccccc12)c1c(F)cccc1F [Compound 9a]
inhibition at 100 µM (CRAC channel): < 50%

Cc1nnsc1C(=O)Nc1nn(Cc2ccc(Cl)cc2Cl)c2ccccc12 [Compound 9e]
IC50 (CRAC channel): > 30 µM
inhibition at 30 µM (CRAC channel; RBL-2H3, read-out: Inhibition of Ca2+ influx at 30 µM): ~50%

O=C(Nc1nn(Cc2ccc(Cl)cc2Cl)c2ccccc12)c1ccc(F)cc1F [Compound 9f]
inhibition at 100 µM (CRAC channel): < 50%

O=C(Nc1ccccc1F)c1nn(Cc2ccc(Cl)cc2Cl)c2ccccc12 [Compound 12c]
IC50 (CRAC channel): > 30 µM

O=C(Nc1ccc(F)cc1F)c1nn(Cc2ccc(Cl)cc2Cl)c2ccccc12 [Compound 12e]
IC50 (TNFα): 0.64 µM

O=C(Nc1cnns1)c1nn(Cc2ccc(Cl)cc2Cl)c2ccccc12 [Compound 12h]
inhibition at 100 µM (CRAC channel): < 50%

N-[1-[(2,4-dichlorophenyl)methyl]indazol-3-yl]-3-fluoro-pyridine-4-carboxamide [Compound 12d]
Inhibition of β-hex release (in words) (RBL-2H3 cells): nearly complete inhibition of β-hex release
Level of nuclear NFAT (in words) (NFAT-c1): restore the levels of nuclear NFAT to that of resting MCs
IC50 (CRAC channel; read-out: IC50 (µM) Ca2+ influx, Table 3, SD <20%): 0.67 µM
IC50 (CRAC channel; read-out: IC50 (µM), inhibition of Ca2+ influx, indazole derivatives, Table 1, RBL-2H3 cells activated with Tg 1 µM, SD <35%): 0.67 µM
